Each structure is given as a SMILES string. Like-named read-outs stand apart in the source and are kept apart here.

The record followed here is US20260325685A1, “Radiopharmaceutical Compositions Targeting Carbonic Anhydrase IX and Uses Thereof” (RayzeBio, Inc., priority 2023, published 2026).

In one test the target is T1, human CA-XII (Homo sapiens, UniProt O43570).
T1 construct: purchased Creative BioMart CA12-261H
The test is described as follows: Surface Plasmon Resonance (SPR) binding kinetics to recombinant human CA-XII (Biacore 8K, single-cycle kinetics, 1:1 binding model). Put shortly:
(§1)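 Streptavidin capture, 1200-1800 RU; capture injection 180 s (CA-IX) vs 75 s (CA-XII). Analyte 100-0.39 nM, 9 conc., PBS-P+ pH 7.4 + 1% DMSO, 25° C. On 120 s, off 1200 s; ka/kd after reference subtraction and DMSO correction.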

The next test deals with T2, human CA-IX (Homo sapiens, UniProt Q16790).
T2 construct: purchased Acro CA9-H82E3
The test is described as follows: Surface Plasmon Resonance (SPR) binding kinetics to recombinant human CA-IX (Biacore 8K, single-cycle kinetics, 1:1 binding model). Put shortly:
as §1

[1] abbreviates: Chelated Metal: Lu-175, 25° C., pH 7.4, read-out: CAXII KD.
Where [2] appears, read: Chelated Metal: Lu-175; SPR, 25° C., pH 7.4; read-out: CAIX KD.

T1 sequence (O43570 25-354): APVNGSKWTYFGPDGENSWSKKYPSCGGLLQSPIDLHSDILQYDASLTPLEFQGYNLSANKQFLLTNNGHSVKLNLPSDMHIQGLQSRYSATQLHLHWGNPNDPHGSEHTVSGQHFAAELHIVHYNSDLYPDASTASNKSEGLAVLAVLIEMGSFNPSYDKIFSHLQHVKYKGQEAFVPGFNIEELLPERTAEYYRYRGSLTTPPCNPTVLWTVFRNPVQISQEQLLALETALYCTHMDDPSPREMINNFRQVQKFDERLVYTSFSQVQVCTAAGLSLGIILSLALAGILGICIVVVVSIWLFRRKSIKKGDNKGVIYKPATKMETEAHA

On to `CC(CCC(=O)N1CCNC[C@H]1C(=O)N[C@@H](CC(=O)N1CCN(C(=O)CN2CCN(CC(=O)O)CCN(CC(=O)O)CCN(CC(=O)O)CC2)C[C@@H]1C(=O)NCCn1cc(C23CC(C(=O)Nc4nnc(S(N)(=O)=O)s4)(C2)C3)nn1)C(N)=O)(c1ccc(O)cc1)c1ccc(O)cc1.[Lu+3]` [Compound 108.3], for which the Kd at human CA-XII (setting [1]) was more than 10 nM; on human CA-IX (setting [2]), 2.5 to 10 nM.
With `CC(CCC(=O)N1CCOC[C@@H]1C(=O)N[C@@H](CC(=O)N1CCN(C(=O)CN2CCN(CC(=O)O)CCN(CC(=O)O)CCN(CC(=O)O)CC2)C[C@@H]1C(=O)NCCn1cc(C23CC(C(=O)Nc4nnc(S(N)(=O)=O)s4)(C2)C3)nn1)C(=O)O)(c1ccc(O)cc1)c1ccc(O)cc1.[Lu+3]` [Compound 108.4], the values for the Kd on human CA-XII (setting [1]) and on human CA-IX (setting [2]) were more than 10 nM and 1 to 2.5 nM, respectively.
Regarding `CC(CCC(=O)N1CCC[C@@H]1C(=O)N[C@@H](CC(=O)N1CCN(C(=O)CN2CCN(CC(=O)O)CCN(CC(=O)O)CCN(CC(=O)O)CC2)C[C@@H]1C(=O)NCCn1cc(C23CC(C(=O)Nc4nnc(S(N)(=O)=O)s4)(C2)C3)nn1)C(=O)O)(c1ccc(O)cc1)c1ccc(O)cc1.[Lu+3]` [Compound 108.5], the dissociation constant (Kd) is more than 10 nM at human CA-XII (setting [1]) and 2.5 to 10 nM at human CA-IX (setting [2]).
Consider `CC(CCC(=O)N1CCC[C@H]1C(=O)N[C@@H](CC(=O)N1CCN(C(=O)CN2CCN(CC(=O)O)CCN(CC(=O)O)CCN(CC(=O)O)CC2)C[C@@H]1C(=O)NCCn1cc(C23CC(C(=O)Nc4nnc(S(N)(=O)=O)s4)(C2)C3)nn1)C(=O)O)(c1ccc(O)cc1)c1ccc(O)cc1.[Lu+3]` [Compound 108], for which the dissociation constant (Kd) on human CA-XII (read-out: CAXII KD, Chelated Metal: Lu-175, 25° C., pH 7.4) is more than 10 nM; at human CA-IX (read-out: CAIX KD; Chelated Metal: Lu-175; SPR, 25° C., pH 7.4) it was 1 to 2.5 nM.
Take `NS(=O)(=O)c1nnc(NC(=O)C23CC(c4cn(CCNC(=O)[C@@H]5CN(C(=O)CN6CCN(CC(=O)O)CCN(CC(=O)O)CCN(CC(=O)O)CC6)CCN5C(=O)C[C@H](NC(=O)C[C@H](NC(=O)c5ccc(C6CC6)cc5)C(=O)O)C(=O)O)nn4)(C2)C3)s1.[Lu+3]` [Compound 109.1]: the Kd was 2.5 to 10 nM at human CA-XII (setting [1]) and less than 1 nM on human CA-IX (setting [2]).
Regarding `NS(=O)(=O)c1nnc(NC(=O)C23CC(c4cn(CCNC(=O)[C@@H]5CN(C(=O)CN6CCN(CC(=O)O)CCN(CC(=O)O)CCN(CC(=O)O)CC6)CCN5C(=O)C[C@H](NC(=O)C[C@H](NC(=O)CCC5CCCCCC5)C(=O)O)C(=O)O)nn4)(C2)C3)s1.[Lu+3]` [Compound 109.2], the figures for the Kd on human CA-XII (setting [1]) and at human CA-IX (setting [2]) were 1 to 2.5 nM and less than 1 nM, respectively.
The like results for `Cc1c(C(=O)N[C@@H](CC(=O)N[C@@H](CC(=O)N2CCN(C(=O)CN3CCN(CC(=O)O)CCN(CC(=O)O)CCN(CC(=O)O)CC3)C[C@H]2C(=O)NCCn2cc(C34CC(C(=O)Nc5nnc(S(N)(=O)=O)s5)(C3)C4)nn2)C(=O)O)C(=O)O)n[nH]c1C(F)(F)F.[Lu+3]` [Compound 109.3] were, in that order, less than 1 nM and less than 1 nM.
Take `NS(=O)(=O)c1nnc(NC(=O)C23CC(c4cn(CCNC(=O)[C@@H]5CN(C(=O)CN6CCN(CC(=O)O)CCN(CC(=O)O)CCN(CC(=O)O)CC6)CCN5C(=O)C[C@H](NC(=O)C[C@H](NC(=O)c5ccc(C6CC6)nn5)C(=O)O)C(=O)O)nn4)(C2)C3)s1.[Lu+3]` [Compound 109.4]: the values for the Kd at human CA-XII (setting [1]) and at human CA-IX (setting [2]) were 2.5 to 10 nM and less than 1 nM, respectively.
On to `NS(=O)(=O)c1nnc(NC(=O)C23CC(c4cn(CCNC(=O)[C@@H]5CN(C(=O)CN6CCN(CC(=O)O)CCN(CC(=O)O)CCN(CC(=O)O)CC6)CCN5C(=O)C[C@H](NC(=O)C[C@H](NC(=O)CCc5ccc(O)cc5)C(=O)O)C(=O)O)nn4)(C2)C3)s1.[Lu+3]` [Compound 109.5], for which the equilibrium dissociation constant (Kd) lay in the range of 2.5 to 10 nM at human CA-XII (setting [1]) and 1 to 2.5 nM at human CA-IX (setting [2]).
As for `NS(=O)(=O)c1nnc(NC(=O)C23CC(c4cn(CCNC(=O)[C@@H]5CN(C(=O)CN6CCN(CC(=O)O)CCN(CC(=O)O)CCN(CC(=O)O)CC6)CCN5C(=O)C[C@H](NC(=O)C[C@H](NC(=O)c5cc(C(F)(F)F)[nH]n5)C(=O)O)C(=O)O)nn4)(C2)C3)s1.[Lu+3]` [Compound 109.6], the values for the dissociation constant Kd on human CA-XII (setting [1]) and at human CA-IX (setting [2]) were 2.5 to 10 nM and less than 1 nM, respectively.
With `NS(=O)(=O)c1nnc(NC(=O)C23CC(c4cn(CCNC(=O)[C@@H]5CN(C(=O)CN6CCN(CC(=O)O)CCN(CC(=O)O)CCN(CC(=O)O)CC6)CCN5C(=O)C[C@H](NC(=O)C[C@H](NC(=O)c5n[nH]c6ccccc56)C(=O)O)C(=O)O)nn4)(C2)C3)s1.[Lu+3]` [Compound 109.7], the values for the Kd on human CA-XII (setting [1]) and on human CA-IX (setting [2]) were 2.5 to 10 nM and less than 1 nM, respectively.
As for `NS(=O)(=O)c1nnc(NC(=O)C23CC(c4cn(CCNC(=O)[C@@H]5CN(C(=O)CN6CCN(CC(=O)O)CCN(CC(=O)O)CCN(CC(=O)O)CC6)CCN5C(=O)C[C@H](NC(=O)C[C@H](NC(=O)c5coc(C6CC6)n5)C(=O)O)C(=O)O)nn4)(C2)C3)s1.[Lu+3]` [Compound 109.8], the Kd lay in the range of 2.5 to 10 nM on human CA-XII (setting [1]) and 1 to 2.5 nM at human CA-IX (setting [2]).
On to `NS(=O)(=O)c1nnc(NC(=O)C23CC(c4cn(CCNC(=O)[C@@H]5CN(C(=O)CN6CCN(CC(=O)O)CCN(CC(=O)O)CCN(CC(=O)O)CC6)CCN5C(=O)C[C@H](NC(=O)C[C@H](NC(=O)CCC56CCC(CC5)C6)C(=O)O)C(=O)O)nn4)(C2)C3)s1.[Lu+3]` [Compound 109.9], for which the dissociation constant Kd is 1 to 2.5 nM at human CA-XII (setting [1]) and less than 1 nM on human CA-IX (setting [2]).
As for `NS(=O)(=O)c1nnc(NC(=O)C23CC(c4cn(CCNC(=O)[C@@H]5CN(C(=O)CN6CCN(CC(=O)O)CCN(CC(=O)O)CCN(CC(=O)O)CC6)CCN5C(=O)C[C@H](NC(=O)C[C@H](NC(=O)Cc5n[nH]c6ccccc56)C(=O)O)C(=O)O)nn4)(C2)C3)s1.[Lu+3]` [Compound 109.10], the Kd at human CA-XII (setting [1]) was 2.5 to 10 nM; on human CA-IX (setting [2]), less than 1 nM.
Take `NS(=O)(=O)c1nnc(NC(=O)C23CC(c4cn(CCNC(=O)[C@@H]5CN(C(=O)CN6CCN(CC(=O)O)CCN(CC(=O)O)CCN(CC(=O)O)CC6)CCN5C(=O)C[C@H](NC(=O)C[C@H](NC(=O)Cc5n[nH]c6ccc(F)cc56)C(=O)O)C(=O)O)nn4)(C2)C3)s1.[Lu+3]` [Compound 109.11]: the equilibrium dissociation constant (Kd) at human CA-XII (setting [1]) was 2.5 to 10 nM; on human CA-IX (setting [2]) it was less than 1 nM.
Taken in the same sequence, the figures for `NS(=O)(=O)c1nnc(NC(=O)C23CC(c4cn(CCNC(=O)[C@@H]5CN(C(=O)CN6CCN(CC(=O)O)CCN(CC(=O)O)CCN(CC(=O)O)CC6)CCN5C(=O)C[C@H](NC(=O)C[C@H](NC(=O)c5ccc(C6CC6)nc5)C(=O)O)C(=O)O)nn4)(C2)C3)s1.[Lu+3]` [Compound 109.12] were 2.5 to 10 nM and 1 to 2.5 nM.
`N[C@@H](CC(=O)N[C@@H](CC(=O)N1CCN(C(=O)CN2CCN(CC(=O)O)CCN(CC(=O)O)CCN(CC(=O)O)CC2)C[C@H]1C(=O)NCCn1cc(C23CC(C(=O)Nc4nnc(S(N)(=O)=O)s4)(C2)C3)nn1)C(=O)O)C(=O)O.[Lu+3]` [Compound 109.13]: the Kd at human CA-XII (setting [1]) was 2.5 to 10 nM; at human CA-IX (setting [2]), less than 1 nM.
As for `NS(=O)(=O)c1nnc(NC(=O)C23CC(c4cn(CCNC(=O)[C@@H]5CN(C(=O)CN6CCN(CC(=O)O)CCN(CC(=O)O)CCN(CC(=O)O)CC6)CCN5C(=O)C[C@H](NC(=O)C[C@H](NC(=O)CCCc5ccc(I)cc5)C(=O)O)C(=O)O)nn4)(C2)C3)s1.[Lu+3]` [Compound 109.14], the equilibrium dissociation constant (Kd) at human CA-XII (setting [1]) was 2.5 to 10 nM; at human CA-IX (setting [2]) it was less than 1 nM.
Taken in the same sequence, the figures for `NS(=O)(=O)c1nnc(NC(=O)C23CC(c4cn(CCNC(=O)[C@@H]5CN(C(=O)CN6CCN(CC(=O)O)CCN(CC(=O)O)CCN(CC(=O)O)CC6)CCN5C(=O)C[C@H](NC(=O)C[C@H](NC(=O)c5n[nH]c6ccc(F)cc56)C(=O)O)C(=O)O)nn4)(C2)C3)s1.[Lu+3]` [Compound 109.15] were 2.5 to 10 nM and less than 1 nM.
The like results for `NS(=O)(=O)c1nnc(NC(=O)C23CC(c4cn(CCNC(=O)[C@@H]5CN(C(=O)CN6CCN(CC(=O)O)CCN(CC(=O)O)CCN(CC(=O)O)CC6)CCN5C(=O)C[C@H](NC(=O)C[C@H](NC(=O)c5ccc(S(F)(F)(F)(F)F)cc5)C(=O)O)C(=O)O)nn4)(C2)C3)s1.[Lu+3]` [Compound 109.16] were, in that order, 2.5 to 10 nM and less than 1 nM.
Taken in the same sequence, the figures for `NS(=O)(=O)c1nnc(NC(=O)C23CC(c4cn(CCNC(=O)[C@@H]5CN(C(=O)CN6CCN(CC(=O)O)CCN(CC(=O)O)CCN(CC(=O)O)CC6)CCN5C(=O)C[C@H](NC(=O)C[C@H](NC(=O)c5coc(C(F)(F)F)n5)C(=O)O)C(=O)O)nn4)(C2)C3)s1.[Lu+3]` [Compound 109.17] were more than 10 nM and 2.5 to 10 nM.
For `NS(=O)(=O)c1nnc(NC(=O)C23CC(c4cn(CCNC(=O)[C@@H]5CN(C(=O)CN6CCN(CC(=O)O)CCN(CC(=O)O)CCN(CC(=O)O)CC6)CCN5C(=O)C[C@H](NC(=O)C[C@H](NC(=O)CC5CC6(CCC6)C5)C(=O)O)C(=O)O)nn4)(C2)C3)s1.[Lu+3]` [Compound 109.18], the Kd on human CA-XII (setting [1]) was 1 to 2.5 nM; at human CA-IX (setting [2]), less than 1 nM.
For `NS(=O)(=O)c1nnc(NC(=O)C23CC(c4cn(CCNC(=O)[C@@H]5CN(C(=O)CN6CCN(CC(=O)O)CCN(CC(=O)O)CCN(CC(=O)O)CC6)CCN5C(=O)C[C@H](NC(=O)C[C@H](NC(=O)c5ccc(C6CC6)cn5)C(=O)O)C(=O)O)nn4)(C2)C3)s1.[Lu+3]` [Compound 109.19], the dissociation constant (Kd) at human CA-XII (setting [1]) was 1 to 2.5 nM; at human CA-IX (setting [2]), less than 1 nM.
On to `NS(=O)(=O)c1nnc(NC(=O)C23CC(c4cn(CCNC(=O)[C@@H]5CN(C(=O)CN6CCN(CC(=O)O)CCN(CC(=O)O)CCN(CC(=O)O)CC6)CCN5C(=O)C[C@H](NC(=O)C[C@H](NC(=O)Cc5ccc(S(F)(F)(F)(F)F)cc5)C(=O)O)C(=O)O)nn4)(C2)C3)s1.[Lu+3]` [Compound 109.20], for which the figures for the equilibrium dissociation constant (Kd) at human CA-XII (setting [1]) and at human CA-IX (setting [2]) were 2.5 to 10 nM and less than 1 nM, respectively.
The like results for `NS(=O)(=O)c1nnc(NC(=O)C23CC(c4cn(CCNC(=O)[C@@H]5CN(C(=O)CN6CCN(CC(=O)O)CCN(CC(=O)O)CCN(CC(=O)O)CC6)CCN5C(=O)C[C@H](NC(=O)C[C@H](NCc5ccc(C6CC6)cc5)C(=O)O)C(=O)O)nn4)(C2)C3)s1.[Lu+3]` [Compound 109.21] were, in that order, more than 10 nM and less than 1 nM.
